What was measured:
[1] = molecular target: T1, long form of human GPR120 (Homo sapiens, UniProt Q5NUL3); assay: Human GPR120 DiscoveRx PathHunter Beta-Arrestin Assay, Procedure β-arrestin A (3000 cells per well); type: cell-based; conditions: read-out: GPR120 B-arrestin A EC50
T1 construct: host or cells: PathHunter CHO-K1 GPR120 β-Arrestin Cell Line
T1 sequence (Q5NUL3 1-377 isoform Q5NUL3-1): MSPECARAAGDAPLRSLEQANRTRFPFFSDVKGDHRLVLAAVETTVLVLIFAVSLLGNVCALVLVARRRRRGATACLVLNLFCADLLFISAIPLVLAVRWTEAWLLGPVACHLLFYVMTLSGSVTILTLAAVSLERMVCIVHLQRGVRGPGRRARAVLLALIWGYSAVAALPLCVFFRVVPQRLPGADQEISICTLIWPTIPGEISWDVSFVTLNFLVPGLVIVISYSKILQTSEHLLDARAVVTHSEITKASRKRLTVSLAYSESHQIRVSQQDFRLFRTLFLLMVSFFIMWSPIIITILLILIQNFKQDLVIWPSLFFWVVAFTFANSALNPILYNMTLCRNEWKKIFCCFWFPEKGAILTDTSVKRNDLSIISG
Outline: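 PathHunter CHO-K1 cells with long-form receptor, 3000/well, seeded overnight at 37 °C; equilibrated 60 min at 37 °C in HBSS/20 mM HEPES/0.1% BSA, pH 7.4. Compound serial dilutions (25–0.012 μM) added for 90 min at 37 °C, detection 60 min at room temperature, luminescence read; EC50 from % of positive control, Hill slope fixed at 1.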

[2] = molecular target: T2, short form of the GPR120 receptor (Homo sapiens, UniProt Q5NUL3); assay: Human GPR120 DiscoveRx PathHunter Beta-Arrestin Assay, Procedure β-arrestin B (5000 cells/well); type: cell-based
T2 construct: host or cells: PathHunter CHO-K1 GPR120S β-Arrestin Cell Line
T2 sequence (Q5NUL3 1-361): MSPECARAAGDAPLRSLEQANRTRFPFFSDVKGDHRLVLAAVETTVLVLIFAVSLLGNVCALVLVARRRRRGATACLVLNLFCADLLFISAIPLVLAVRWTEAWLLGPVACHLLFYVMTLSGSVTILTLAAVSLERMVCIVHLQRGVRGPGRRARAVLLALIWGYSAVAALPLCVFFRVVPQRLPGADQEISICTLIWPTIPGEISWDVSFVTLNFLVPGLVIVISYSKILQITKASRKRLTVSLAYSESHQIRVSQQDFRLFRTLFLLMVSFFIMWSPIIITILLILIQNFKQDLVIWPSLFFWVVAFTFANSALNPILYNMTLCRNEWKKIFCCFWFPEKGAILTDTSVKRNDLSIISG
Outline: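 PathHunter CHO-K1 cells expressing short-form GPR120 (NM_181745), seeded at 5000 cells/well, were exposed to compound for 90 min at 37 °C in HBSS/20 mM HEPES/0.1% BSA, pH 7.4. Dilutions ran 25–0.012 µM before addition to wells. β-arrestin recruitment was read by EFC β-gal luminescence, and EC50 was fitted to % activity versus positive control with Hill slope fixed at 1.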

EC50 [1]	EC50 [2]	Structure (SMILES)
0.283 µM	0.094 µM	CCc1cc2cc(Cl)cc(COc3ccc(CCC(=O)O)c(C)c3C)c2o1 [Compound 11, 3-{4-[(5-Chloro-2-ethyl-1-benzofuran-7-yl)methoxy]-2,3-dimethylphenyl}propanoic acid]
0.151 µM	0.07 µM	CCc1cc2cc(OC(F)(F)F)cc(COc3ccc(CCC(=O)O)c(C)c3C)c2o1 [Compound 12, 3-(4-{[2-Ethyl-5-(trifluoromethoxy)-1-benzofuran-7-yl]methoxy}-2,3-dimethylphenyl)propanoic acid]
0.085 µM	0.069 µM	Cc1cc2cc(OC(F)(F)F)cc(COc3ccc(CCC(=O)O)c(C)c3C)c2o1 [Compound 36, 3-(2,3-Dimethyl-4-{[2-methyl-5-(trifluoromethoxy)-1-benzofuran-7-yl]methoxy}phenyl)propanoic acid]
0.429 µM	0.15 µM	CCc1cc2cc(Cl)cc(COc3ccc(CCC(=O)O)c4c3CCC4)c2o1 [Compound 54, 3-{7-[(5-Chloro-2-ethyl-1-benzofuran-7-yl)methoxy]-2,3-dihydro-1H-inden-4-yl}propanoic acid]
2.5 µM	1.29 µM	CCc1cc2ccc(OC(F)F)c(COc3ccc(CCC(=O)O)c(C)c3C)c2o1 [Compound 70, 3-(4-{[6-(Difluoromethoxy)-2-ethyl-1-benzofuran-7-yl]methoxy}-2,3-dimethylphenyl)propanoic acid]
